What was measured:
[1] = tested on: bicistronic HCV replicon (replicon RNA, GenBank Accession No. AJ242654); experiment: HCV Replicon Assay; format: cell-based; conditions: Hepatitis C virus, 72 h, read-out: Replicon IC50

SMILES | melting point | IC50 [1] [µM]
C[C@@H](C1CC1)n1c(-c2ccc(NS(=O)(=O)C(C)(C)C)nc2)c(C(N)=O)c2cc(F)c(OC(F)F)cc21 [compound 1081, 2-{6-[(tert-butylsulfonyl)amino]pyridin-3-yl}-1-[(1S)-1-cyclopropylethyl]-6-(difluoromethoxy)-5-fluoro-1H-indole-3-carboxamide] | 239 to 241 °C | < 0.5
N#Cc1c(-c2ncc(S(=O)(=O)NC(CF)CF)cn2)n(C2CCC2)c2cc(N3CCOCC3)ccc12 [compound 321, 2-[3-cyano-1-cyclobutyl-6-(morpholin-4-yl)-1H-indol-2-yl]-N-(1,3-difluoropropan-2-yl)pyrimidine-5-sulfonamide] | 223 to 225 °C | 0.5 to 2
C[C@H](NS(=O)(=O)c1ccc(-c2c(C#N)c3ccc(F)cc3n2C2CCCCC2)nc1)C1CC1 [compound 262, 6-(3-cyano-1-cyclohexyl-6-fluoro-1H-indol-2-yl)-N-[(1S)-1-cyclopropylethyl]pyridine-3-sulfonamide] | 161 to 162 °C | < 0.5
C[C@H](NS(=O)(=O)c1ccc(-c2c(C#N)c3ccc(C4CC4)cc3n2-c2ccccn2)nc1)C(F)(F)F [compound 502, 6-[3-cyano-6-cyclopropyl-1-(pyridin-2-yl)-1H-indol-2-yl]-N-[(2S)-1,1,1-trifluoropropan-2-yl]pyridine-3-sulfonamide] | 185 to 189 °C | < 0.5
CCc1cc2c(cc1F)c(C#N)c(-c1ncc(S(=O)(=O)N[C@@H](C)C(F)(F)F)cc1C)n2-c1ccccn1 [compound 870, 6-[3-cyano-6-ethyl-5-fluoro-1-(pyridin-2-yl)-1H-indol-2-yl]-5-methyl-N-[(2S)-1,1,1-trifluoropropan-2-yl]pyridine-3-sulfonamide] | 195 to 198 °C | < 0.5
N#Cc1c(-c2ncc(S(=O)(=O)NC(CF)CF)cn2)n(C2CCC2)c2cc(Cl)c(F)cc12 [compound 149, 2-(6-chloro-3-cyano-1-cyclobutyl-5-fluoro-1H-indol-2-yl)-N-(1,3-difluoropropan-2-yl)pyrimidine-5-sulfonamide] | > 245 °C (dec.) | < 0.5
CCc1ccc2c(c1)c(C#N)c(-c1ccc(S(=O)(=O)N[C@@H](C)C(F)(F)F)cn1)n2C1CCC1 [compound 339, 6-(3-cyano-1-cyclobutyl-5-ethyl-1H-indol-2-yl)-N-[(2S)-1,1,1-trifluoropropan-2-yl]pyridine-3-sulfonamide] | 168 to 169 °C | < 0.5
CCc1cc(F)c2c(C(N)=O)c(-c3ccc(NS(=O)(=O)C(C)(C)C)nc3)n(C3CCC3)c2c1 [compound 1118, 2-{6-[(tert-butylsulfonyl)amino]pyridin-3-yl}-1-cyclobutyl-6-ethyl-4-fluoro-1H-indole-3-carboxamide] | 263 to 268 °C | < 0.5
CCc1cc2c(cc1F)c(C#N)c(-c1ccc(S(=O)(=O)N[C@@H](C)C(F)(F)F)cn1)n2-c1ccc(Cl)cn1 [compound 966, 6-[1-(5-chloropyridin-2-yl)-3-cyano-6-ethyl-5-fluoro-1H-indol-2-yl]-N-[(2S)-1,1,1-trifluoropropan-2-yl]pyridine-3-sulfonamide] | 252 to 259 °C | < 0.5
C[C@H](NS(=O)(=O)c1cnc(-c2c(C#N)c3ccc(Cl)cc3n2C2CCCCC2)nc1)C(F)(F)F [compound 516, 2-(6-chloro-3-cyano-1-cyclohexyl-1H-indol-2-yl)-N-[(2S)-1,1,1-trifluoropropan-2-yl]pyrimidine-5-sulfonamide] | 215 to 220 °C | < 0.5
C[C@@H](NS(=O)(=O)c1ccc(-c2c(C#N)c3cc(C(F)F)ccc3n2C2CCCC2)nc1)C(F)(F)F [compound 538, 6-[3-cyano-1-cyclopentyl-5-(difluoromethyl)-1H-indol-2-yl]-N-[(2R)-1,1,1-trifluoropropan-2-yl]pyridine-3-sulfonamide] | 186 to 188 °C | < 0.5
Cc1ccc2c(C#N)c(-c3ncc(S(=O)(=O)NC(CF)CF)cn3)n(C(C)C)c2c1 [compound 134, 2-[3-cyano-6-methyl-1-(propan-2-yl)-1H-indol-2-yl]-N-(1,3-difluoropropan-2-yl)pyrimidine-5-sulfonamide] | 213 to 215 °C | < 0.5
C[C@H](NS(=O)(=O)c1ccc(-c2c(C#N)c3cc(C(F)(F)F)ccc3n2-c2cnccn2)nc1)C(F)(F)F [compound 897, 6-[3-cyano-1-(pyrazin-2-yl)-5-(trifluoromethyl)-1H-indol-2-yl]-N-[(2S)-1,1,1-trifluoropropan-2-yl]pyridine-3-sulfonamide] | 255 to 258 °C | < 0.5
Cc1cc2c(cc1F)c(C#N)c(-c1ccc(S(=O)(=O)NC(C)(C)C)cn1)n2-c1ccccc1 [compound 1108, N-tert-butyl-6-(3-cyano-5-fluoro-6-methyl-1-phenyl-1H-indol-2-yl)pyridine-3-sulfonamide] | 200.6 to 202.4 °C | < 0.5
Cc1ccc2c(C#N)c(-c3ccc(S(=O)(=O)NC4(C(F)(F)F)CC4)cn3)n(C3CCC3)c2c1 [compound 256, 6-(3-cyano-1-cyclobutyl-6-methyl-1H-indol-2-yl)-N-[1-(trifluoromethyl)cyclopropyl]pyridine-3-sulfonamide] | 189 to 194 °C | < 0.5
Cc1cc2c(cc1O)c(C#N)c(-c1ccc(S(=O)(=O)NC(C)(C)C)cn1)n2C1CCC1 [compound 805, N-tert-butyl-6-(3-cyano-1-cyclobutyl-5-hydroxy-6-methyl-1H-indol-2-yl)pyridine-3-sulfonamide] | 211 to 213 °C | 0.5 to 2
N#Cc1c(-c2ccc(S(=O)(=O)NC(CF)CF)cn2)n(C2CCC2)c2cc(N3CCOCC3)ccc12 [compound 322, 6-[3-cyano-1-cyclobutyl-6-(morpholin-4-yl)-1H-indol-2-yl]-N-(1,3-difluoropropan-2-yl)pyridine-3-sulfonamide] | 241 to 242 °C | 2 to 5
CC(C)(C)S(=O)(=O)Nc1ccc(-c2c(C(N)=O)c3c(F)cc(C4CC4)cc3n2-c2ccc(F)cc2)cn1 [compound 1105, 2-{6-[(tert-butylsulfonyl)amino]pyridin-3-yl}-6-cyclopropyl-4-fluoro-1-(4-fluorophenyl)-1H-indole-3-carboxamide] | 290 to 295 °C | < 0.5
CC(C)(C)S(=O)(=O)Nc1ccc(-c2c(C(N)=O)c3cc(F)c(OC(F)F)cc3n2C2CCCCC2)cn1 [compound 1063, 2-{6-[(tert-butylsulfonyl)amino]pyridin-3-yl}-1-cyclohexyl-6-(difluoromethoxy)-5-fluoro-1H-indole-3-carboxamide] | 296 to 297 °C | < 0.5
Cc1ccc2c(C#N)c(-c3ncc(S(=O)(=O)N[C@@H](C)C(F)(F)F)cn3)n(C(C)C)c2c1 [compound 403, 2-[3-cyano-6-methyl-1-(propan-2-yl)-1H-indol-2-yl]-N-[(2S)-1,1,1-trifluoropropan-2-yl]pyrimidine-5-sulfonamide] | 235 to 236 °C | 0.5 to 2
C[C@H](NS(=O)(=O)c1ccc(-c2c(C#N)c3cc(Cl)ccc3n2-c2ccccn2)nc1)C1CC1 [compound 490, 6-[5-chloro-3-cyano-1-(pyridin-2-yl)-1H-indol-2-yl]-N-[(1S)-1-cyclopropylethyl]pyridine-3-sulfonamide] | 136 to 139 °C | 2 to 5
N#Cc1c(-c2ccc(S(=O)(=O)NC(CF)CF)cn2)n(C2CCCC2)c2cc(OC(F)(F)F)ccc12 [compound 70, 6-[3-cyano-1-cyclopentyl-6-(trifluoromethoxy)-1H-indol-2-yl]-N-(1,3-difluoropropan-2-yl)pyridine-3-sulfonamide] | 141 to 143 °C | < 0.5
CC(C)(C)S(=O)(=O)Nc1ccc(-c2c(C#N)c3ccc(OC(F)F)cc3n2CC2CC2)cn1 [compound 269, N-{5-[3-cyano-1-(cyclopropylmethyl)-6-(difluoromethoxy)-1H-indol-2-yl]pyridin-2-yl}-2-methylpropane-2-sulfonamide] | 214 to 215 °C | 0.5 to 2
CC(C)NS(=O)(=O)c1cnc(-c2c(C#N)c3ccc(F)cc3n2C2CCC2)nc1 [compound 138, 2-(3-cyano-1-cyclobutyl-6-fluoro-1H-indol-2-yl)-N-(propan-2-yl)pyrimidine-5-sulfonamide] | 193 to 195 °C | 0.5 to 2
CC(C)n1c(-c2ncc(S(=O)(=O)N[C@@H](C)C3CC3)cn2)c(C#N)c2ccc(OC(F)F)cc21 [compound 207, 2-[3-cyano-6-(difluoromethoxy)-1-(propan-2-yl)-1H-indol-2-yl]-N-[(1S)-1-cyclopropylethyl]pyrimidine-5-sulfonamide] | 169 to 170 °C | 0.5 to 2
N#Cc1c(-c2ccc(S(N)(=O)=O)cn2)n(C2CCC2)c2cc(OC(F)F)c(F)cc12 [compound 722, 6-[3-cyano-1-cyclobutyl-6-(difluoromethoxy)-5-fluoro-1H-indol-2-yl]pyridine-3-sulfonamide] | 172 to 175 °C | < 0.5
Cc1ccc2c(c1)c(C#N)c(-c1ncc(S(=O)(=O)N[C@@H](C)C(F)(F)F)cn1)n2CC1CC1 [compound 389, 2-[3-cyano-1-(cyclopropylmethyl)-5-methyl-1H-indol-2-yl]-N-[(2S)-1,1,1-trifluoropropan-2-yl]pyrimidine-5-sulfonamide] | 220 to 223 °C | 0.5 to 2
C[C@H](NS(=O)(=O)c1ccc(-c2c(C#N)c3ccc(CC(F)F)cc3n2C2CCCC2)nc1)C(F)(F)F [compound 595, 6-[3-cyano-1-cyclopentyl-6-(2,2-difluoroethyl)-1H-indol-2-yl]-N-[(2S)-1,1,1-trifluoropropan-2-yl]pyridine-3-sulfonamide] | 181 to 189 °C | < 0.5
Cc1ccc2c(C#N)c(-c3ccc(S(=O)(=O)N[C@@H](C)C4CC4)cn3)n(C3CCC3)c2c1 [compound 238, 6-(3-cyano-1-cyclobutyl-6-methyl-1H-indol-2-yl)-N-[(1S)-1-cyclopropylethyl]pyridine-3-sulfonamide] | 181 to 187 °C | < 0.5
